Positions count from the first letter of the chain named.
Assays:
[1] = molecular target: T1, Escherichia coli biotin synthase (BioB), His6-BioB (Escherichia coli, UniProt P12996); assay: […] kDa centrifugal filtration of assay mixture, HPLC; format: binding; details: 50 μM enzyme, intermediate formed in situ, after 2 h assay, anaerobic
T1 sequence (P12996 1-346): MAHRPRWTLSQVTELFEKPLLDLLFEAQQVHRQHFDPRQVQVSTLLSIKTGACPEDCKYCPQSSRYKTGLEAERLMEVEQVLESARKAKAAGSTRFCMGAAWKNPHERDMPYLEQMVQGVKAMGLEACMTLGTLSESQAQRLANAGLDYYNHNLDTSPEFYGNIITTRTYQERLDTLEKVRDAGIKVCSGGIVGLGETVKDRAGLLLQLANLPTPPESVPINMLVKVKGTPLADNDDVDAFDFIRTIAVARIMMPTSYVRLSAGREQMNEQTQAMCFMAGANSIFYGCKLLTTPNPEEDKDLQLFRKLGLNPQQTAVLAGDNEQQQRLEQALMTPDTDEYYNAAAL

[2] = molecular target: T2, Escherichia coli biotin synthase (BioB), His6-BioB (Escherichia coli, UniProt P12996, N153S); assay: […] kDa centrifugal filtration binding assay, HPLC
T2 sequence (P12996 1-346 N153S): T1 sequence (P12996 1-346) with N153S

[3] = molecular target: T3, Escherichia coli biotin synthase (BioB), His6-BioB (Escherichia coli, UniProt P12996, N153Q); assay: […] kDa centrifugal filtration binding assay, HPLC
T3 sequence (P12996 1-346 N153Q): T1 sequence (P12996 1-346) with N153Q

[4] = molecular target: T1, Escherichia coli biotin synthase (BioB), His6-BioB; assay: […] kDa centrifugal filtration binding assay, HPLC

**Q.** With `O=C(O)CCCCC[C@H]1NC(=O)N[C@H]1CS` [9-MDTB] as the compound, how does the “% bound to protein” value [1] read?
**A.** Its value is ~ 50%.

**Q.** `C[S+](CC[C@H](N)C(=O)O)C[C@H]1O[C@@H](n2cnc3c(N)ncnc32)[C@H](O)[C@@H]1O` (stereo partly shown) [AdoMet] was tested. Which Kd [2] did it give?
**A.** Its Kd is 3 ± 1 µM.

**Q.** What about the Kd [3] of the same compound?
**A.** The Kd was 530 ± 180 µM.

**Q.** And the Kd [4]?
**A.** The Kd was 1 ± 0.5 µM.

**Q.** What does the source list for `C[C@@H]1NC(=O)N[C@@H]1CCCCCC(=O)O` [DTB]?
**A.** Kd [2]: 11 ± 3 µM; Kd [3]: 110 ± 30 µM; Kd [4]: 0.5 ± 1 µM

— PMC4418806 (Biochemistry, 2009)
